Assay results from patent US20140242012A1, “METHODS FOR TREATING UV-DAMAGED SKIN AND SCC TUMORS AND FOR REMOVING TATTOOS WITH TOPICAL INGENOL MEBUTATE” (LEO Laboratories Limited, priority 2011, published 2014).

Tests used:
UVB-induced skin lesions = experiment: Field treatment of ~10 cm2 UVB-damaged skin: development of UVB-induced lesions; type: in vivo, SKH1/hr mice
Description: Outbred SKH1/hr mice were irradiated 3 times per week for 10-11 weeks under 6×TL-12/40 W fluorescent tubes (Phillips, Amsterdam, The Netherlands) mounted in parallel. The lamps emit 54% UVB (280-315 nm) and 46% UVA (315-400 nm) (Rebel et al., 2001). During the irradiation mice were segregated into individual boxes (11.5×20 cm) with a piece of 0.125 mm cellulose acetate placed over the box to prevent any UVC reaching the mice. The mice were 26 cm below the UV lamps. Under these conditions the mice received 1.25 times the minimal erythemal dose (MED) of UVB at each exposure, with the total UVB dose being 37.5 MED. One MED was defined as the minimal UVB dose, which caused erythema-oedema evident by visual examination. […] Such cessation was usually only necessary after the initial 2-3 doses of UVB, as mice become resistant to UVB-induced erythema with repeated exposures.
One to three days after discontinuation of UVB irradiation, a ˜10 cm2 rectangular area located centrally on the dorsa and previously demarcated by a tattoo were treated topically, daily for 2 days with 100 μl of 0.05% ingenol mebutate gel or 100 μl of placebo gel. An untreated group served as an additional control. The mice were monitored weekly for the development of lesions both within and outside the treatment areas. […] The number and size of lesions was monitored over time. All visible lesions were counted. […]

B16 = experiment: In vitro cytotoxicity assay (SRB); type: cell-based, murine; conditions: 48 h, DMSO
Procedure: (§1) UV-13.1 and T7 cells are cultured in DMEM medium (Gibco Catalogue number 11960) supplemented with sodium-pyruvate (Gibco Catalogue number 11360-070, final concentration 1 mM), L-glutamine (Gibco, catalogue number 25030-081, final concentration 2 mM) and penicillin/streptomycin (Catalogue number 490269, diluted 1:100). B 16 cells are cultured in RPMI (QIMR) supplemented with 10% FBS and penicillin/streptomycin.
(§2) Cells are seeded with in 10,000 per microtitre wells in 100 μl of culture medium and incubated overnight to enable them to adhere to the bottom of the well. Quadruplicate wells aere treated with ingenol mebutate (PEP005 #250803 final concentration 0.232-232 μM) dissolved in DMSO (Sigma, D2650). […] Included in the assay were cells treated with vehicle alone (1% DMSO) and control. The treated cells are incubated at 37° C. for 48 h. Medium from the microtitre plates is tipped out; the wells are washed once with PBS to remove any excess FBS and then are fixed with methylated spirits for a minimum of 5 min. The methylated spirit is tipped off and the wells are washed once with tap water. A volume of 50 μl of sulforhodmain B (SRB) solution (0.4% SRB in 1% acetic acid) is added to each well and the plates are incubated at room temperature for a minimum of 15 min. The SRB solution is tipped off and the plates are washed twice with tap water and then twice with 1% acetic acid. The final wash of acetic acid is tapped out of the plate and 100 μl of 10 mM Tris base (unbuffered, pH>9) is added per well. The plate is incubated at room temperature for at least 5 min and then the absorbance is read on an ELISA plate reader at 564 nm.
(§3) To determine the in vitro sensitivity profile of T7 cells to ingenol mebutate treatment, a dose-response is generated by using the SRB stain to monitor cellular protein. Cells are seeded at high density and treated with ingenol mebutate (0.232-232 μM) for 48 h. The plates are fixed and are stained with SRB. […]
(§4) Cells are treated with 0.232-232 μM of ingenol mebutate. […] After 2 days, total protein is determined using SRB staining. […]

T7 cells = experiment: In vitro cytotoxicity assay (SRB); type: cell-based, murine; conditions: 48 h, DMSO
Procedure: as §1, §2, §3, §4

UV-13.1 = experiment: In vitro cytotoxicity assay (SRB); type: cell-based, murine; conditions: 48 h, DMSO
Procedure: as §1, §2, §3, §4

[1] = Ogbourne et al. 2004; cited from earlier work

For `C/C=C(/C)C(=O)O[C@H]1C(C)=C[C@]23C(=O)[C@@H](C=C(CO)[C@@H](O)[C@]12O)[C@H]1[C@@H](C[C@H]3C)C1(C)C` [ingenol mebutate], the “growth of individual lesions vs control and placebo” value (UVB-induced skin lesions; lesions within the treatment areas) was “no significant difference”, the “number of lesions outside the treatment area” value (UVB-induced skin lesions; ~10 cm2 area) was “not significantly affected” and the “90% lethal dose (LD90)” value (B16) was 100 to 110 µM. For the same compound, the “90% lethal dose (LD90)” value (T7 cells) was 100 to 110 µM, the “90% lethal dose (LD90)” value (UV-13.1) was 100 to 110 µM and the LD90 values [1] was 180 to 220 µM.
